Among the data in patent US8053435B2, “Naphthalenyloxypropenyl derivatives having inhibitory activity against histone deacetylase and pharmaceutical composition comprising the same” (Korea Research Institute of Chemical Technology, priority 2006, dated 2011) are EC50 and IC50 values, retold here.

Like-named read-outs stand apart in the source and are kept apart here.

Test [1] concerns colon cancer cells HCT116. As to the kind of experiment: Inhibitory activity against proliferation of cancer cells, SRB (Sulforhodamine B) analysis. As to conditions: read-out: Inhibitory conc. against cancer cell growth (EC50 μM) HCT116. It is filed as cell-based. The method, then:
Cancer cells were inoculated into a 96-well microplate at a concentration of 1×10^3˜3×10^3 cells/well and incubated under the condition of 37° C., 5% CO2 for 24 hrs. After the incubation was completed, 0.2, 1, 5, 25, or 100 μM of each of the compounds of Examples was added to the plate, and then the reactant was incubated for 48 hrs. After the substrate was stained with SRB, the anti-cancer activity was determined by comparing the amount of protein in the cells treated with the compound of Examples with that of protein in untreated cells.
Specifically, after the incubation was completed, the culture medium was removed from each well, and the cells were washed 3 times with PBS (pH 7.4). Then, a solution of 50% trichloroacetic acid (TCA) was added to each well in an amount of 50 μl/well at 4° C. for 1 hr to fix them. Then, the microplate was washed 5 times with distilled water and dried in air. […]
50 μl of a staining solution prepared by dissolving 0.4% SRB in 1% acetic acid was added to the wells, and the microplate was kept at room temperature for 1 hr. The well plate was then washed 5 times with 1% acetic acid to remove unbound SRB and dried in air. The stained cells were treated with 150 μl/well of 10 mM Tris-HCl solution (pH 10.5) to elute SRB from the cells, and the absorbance of the cells treated with the compounds of examples at 540 nm was measured, based on the absorbance of an untreated cell. The EC50 value representing inhibition of the cancer cell growth by the extent of 50% was calculated from the measured absorbance, and the results are shown in Table 6.

The test system of the next test is HDAC. As to the kind of experiment: Inhibitory activity against HDAC (BIOMOL Quantizyme Assay system, Fluor de Lys substrate). As to conditions: HeLa nuclear extract as source of HDAC enzymes, enzyme reaction 1 hr. It counts as biochemical. In outline:
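HeLa nuclear extract served as HDAC source (100 nM final) with Fluor de Lys substrate, reacted 1 h. Development used Fluor de Lys developer containing 2 µM trichostatin A for 15 min at room temperature, read at ex 355/em 460 nm.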

[2] abbreviates: Homo sapiens, HCT-116, Table 8, 48 hrs incubation with compound.
Where [3] appears, read: Table 7, formula (4) series, read-out: HDAC Inhibitory conc. (IC50, μM/ml).

For `CC(C)N1CCC(NC/C(=C/c2ccc(C(=O)NO)cc2)COc2cccc3ccccc23)CC1` [Example 4-15, (Z)—N-hydroxy-4-(3-(1-isopropylpiperidin-4-ylamino)-2-((naphthalen-1-yloxy)methyl)prop-1-enyl)benzamide], the EC50 – broadly, the concentration at which the effect is half-maximal – in test [1] (setting [2]) was 0.4 µM. Also, the IC50 with HDAC (setting [3]) was 0.014 µM.
On to `O=C(NO)c1ccc(/C=C(/CNCCCn2ccnc2)COc2cccc3ccccc23)cc1` [Example 4-16, (Z)-4-(3-(3-(1H-imidazol-1-yl)propylamino)-2-((naphthalen-1-yloxy)methyl)prop-1-enyl)-N-hydroxybenzamide], for which the EC50 in test [1] (setting [2]) is 0.7 µM. The IC50 with HDAC (setting [3]) came to 0.003 µM.
With `O=C(NO)c1ccc(/C=C(/CNCCc2ccc(O)cc2)COc2cccc3ccccc23)cc1` [Example 4-17, (Z)—N-hydroxy-4-(3-(4-hydroxyphenethylamino)-2-((naphthalen-1-yloxy)methyl)prop-1-enyl)-benzamide], in test [1] (setting [2]), the EC50 is less than 0.2 µM. The IC50 in the test with HDAC (setting [3]) is 0.003 µM.
Take `CN(C)CC(C)(C)CNC/C(=C/c1ccc(C(=O)NO)cc1)COc1cccc2ccccc12` [Example 4-18, (Z)-4-(3-(3-(dimethylamino)-2,2-dimethylpropylamino)-2-((naphthalen-1-yloxy)methyl)prop-1-enyl)-N-hydroxybenzamide]: the EC50 in test [1] (setting [2]) was determined as 0.31 µM. Also, the IC50 in the test with HDAC (setting [3]) came to 0.006 µM.
For the compound `CC(C)N(CCNC/C(=C/c1ccc(C(=O)NO)cc1)COc1cccc2ccccc12)C(C)C` [Example 4-19, (Z)-4-(3-(2-(diisopropylamino)ethylamino)-2-((naphthalen-1-yloxy)methyl)prop-1-enyl)-N-hydroxybenzamide], in test [1] (setting [2]), the EC50 came to 0.8 µM. Besides, the IC50 with HDAC (setting [3]) came out at 0.016 µM.
For `COCCNC/C(=C/c1ccc(C(=O)NO)cc1)COc1cccc2ccccc12` [Example 4-20, (Z)—N-hydroxy-4-(3-(2-methoxyethylamino)-2-((naphthalen-1-yloxy)methyl)prop-1-enyl)-benzamide], the EC50 in test [1] (setting [2]) was less than 0.2 µM. In addition, the IC50 with HDAC (setting [3]) stood at 0.01 µM.
The like results for `O=C(NO)c1ccc(/C=C(/CNCc2cccs2)COc2cccc3ccccc23)cc1` [Example 4-22, (Z)—N-hydroxy-4-(3-(naphthalen-1-yloxy)-2-((thiophen-2-ylmethylamino)methyl)prop-1-enyl)benzamide] were, in that order, 1.3 µM and 0.02 µM.
Regarding `COc1ccc(CCNC/C(=C/c2ccc(C(=O)NO)cc2)COc2cccc3ccccc23)cc1` [Example 4-23, (Z)—N-hydroxy-4-(3-(4-methoxyphenethylamino)-2-((naphthalen-1-yloxy)methyl)prop-1-enyl)-benzamide], the EC50 in test [1] (setting [2]) was 0.8 µM. In the test on HDAC (setting [3]), the IC50 was 0.04 µM.
The like results for `CN(C)c1ccc(CNC/C(=C/c2ccc(C(=O)NO)cc2)COc2cccc3ccccc23)cc1` [Example 4-24] were, in that order, 0.5 µM and 0.011 µM.
“(Z)-8-(4-Fluorophenethylamino)-N-hydroxy-7-((naphthalen-1-yloxy)methyl)oct-enamide [Example 3-9]”: the EC50 in test [1] (Table 6, 48 hrs incubation with compound) worked out at 0.4 µM. Besides, the IC50 with HDAC (Table 5, formula (3) series, read-out: Inhibitory conc. (IC50, μM/ml)) was 0.003 µM.
